Data: US20240382459A1, “MECHANISMS OF ANDROGEN RECEPTOR-CENTERED TRANSCRIPTIONAL NETWORKS IN REGULATING CD8+ T CELL EXHAUSTION AND THERAPEUTIC APPLICATIONS IN CANCER” (Ohio State Innovation Foundation, priority 2023, published 2024)

Experiments:
[1] = system: AR-overexpressing Jurkat cells; conditions: 100 nM, re-stimulated Days 0, 3, 6, over 9 days
Procedure: Data are mean±SEM. Statistical significance was determined by Student's t test. **p≤0.01, ****p≤0.0001.
Empty vector and androgen receptor-expressing Jurkat cells were seeded into six well plates (Gibco) at 2×10^5 cells per well and treated with 100 nM testosterone (Sigma) or DHT (Millipore), alongside methanol vehicle control (Thermo Fisher). Every three days, cells were counted using the BioRad TC20 automated cell counter, passaged, and re-stimulated with the same androgen concentrations over a time course of 3, 6, and 9 days.

human Tcf7 promoter = conditions: HEK293FT with or without EGFP-C1-AR, 24 h, 500 ng/mL testosterone or 50 nM DHT
Procedure: Renilla and Red Firefly luciferase activity, the latter of which was regulated by a 1 kb long WT or mutant Tcf7 promoter sequence lacking putative AREs (FIG. 13A), were simultaneously measured in control or EGFP-C1-AR overexpressing HEK293FT post 24 h stimulation with 500 ng/mL testosterone (T) or 50 nM DHT.
Red Firefly luciferase activity, as regulated by a 1 kb long human WT or mutant Tcf7 promoter sequence lacking putative AREs, was measured in EGFP-C1-AR overexpressing HEK293FT cells post 24 h stimulation with 500 ng/mL testosterone or vehicle control.
WT or mutated human Tcf7 promoter sequence of one kb upstream from its transcriptional start site was cloned into the pMCS-Red Firefly Luciferase vector (Thermo Fisher). Mutants lacked individual (“Mut 1-4”) or all putative AR binding sites. Briefly, 40,000 HEK293FT cells were grown on a 96 well plate at 80% confluence. Cells were transfected with 200 ng of pEGFP-C1-human AR (a gift from Michael Mancini, Addgene plasmid #28235) and indicated Tcf7 luciferase reporter plasmids using Lipofectamine 2000 (Thermo Fisher) on Day 0 in triplicates. Renilla luciferase gene expression was used to ensure transfection efficiency (Thermo Fisher). […] Cells were then harvested and luciferase activity was analyzed by using Dual-Luciferase Reporter Assay System (Promega).

[2] = system: CD8+ tumor-infiltrating lymphocytes (TILs) from female patients with bladder cancer; experiment: AR blockade of in vitro expanded CD8+ bladder cancer TILs, flow cytometry; type: cell-based, human; conditions: enzalutamide (50 uM in the presence of 10 nM DHT; varying doses), ex vivo expanded TILs
Text: FIGS. 19A, 19B, 19C, 19D and 19E show androgen receptor blockade of in vitro expanded CD8+ bladder cancer TILs promotes effector differentiation and function. […] Statistical significance in FIGS. 19A-C determined by repeated measures ANOVA. P values were corrected for multiple hypothesis testing using the Dunnett method. Statistical significance in FIG. 19E determined by Student's paired t test. *P≤0.05.
In FIG. 19, we investigated the impact of androgen receptor (AR) blockade on in vitro expanded CD8^+ tumor-infiltrating lymphocytes (TILs) from female patients with bladder cancer, focusing on effector differentiation and function. Panel A (FIG. 19A) illustrates the effect of dihydrotestosterone (DHT) treatment on the CD8+GZMB^high population within ex vivo expanded TILs. […] Panel D (FIG. 19D) assesses IFNγ production in CD8+ TILs after PMA/ionomycin/golgi block stimulation with or without enzalutamide. Lastly, Panel E presents the median fluorescence intensity (MFI) of IFN-gamma within the CD8+GZMB^high population. Statistical significance in Panels A-C was determined by repeated measures ANOVA, with P values corrected for multiple hypothesis testing using the Dunnett method. In Panel E (FIG. 19E), statistical significance was determined by Student's paired t test (*P≤0.05).

[3] = system: MB49 mouse urothelial carcinoma cells; experiment: MB49 tumor growth in WT mice after daily oral enzalutamide; type: in vivo; conditions: male WT mice, enzalutamide 25 mg/kg daily oral gavage from Day 5, vs vehicle
Text: FIGS. 5A, 5B, 5C, 5D, 5E, 5F, 5G, 5H, 5I, and 5J show T cell intrinsic AR signaling contributes to male bias in tumor growth and accumulation of CD8^+ progenitor exhausted T cells. MB49 growth and circulating free testosterone levels in (5A) Four Core Genotype or (5B) WT mice three weeks post sham or surgical castration (cast). […] LNCaP lysates were used as the positive AR control. Rep, replicate. […] For tumor growths, mean area (mm^2)±SEM are reported, with statistical significance determined using the repeated measures two-way ANOVA. n=6-11 mice per group.
MB49 (a gift from C. Voelkel-Johnson from the Medical University of South Carolina) and BKL171 mouse urothelial carcinoma cells were cultured in Dulbecco's modified Eagle's medium with 10% heat-inactivated fetal bovine serum and 1% penicillin/streptomycin. 5×10^5 tumor cells were resuspended in 100 μL ice cold PBS for subcutaneous injection into the right flank of a mouse. For antibody-mediated T cell depletion experiments, mice were injected intraperitoneally with 200 μg of anti-mouse CD4 (Clone GK1.5, BioXCell) and/or CD8 neutralizing antibodies (Clone 53-6.7, BioXCell), followed by 100 μg thereafter on the indicated days. […] Tumor surface area (width×length mm^2) was measured using an electronic caliper starting on Day 4 post implantation.

Tcf7 = experiment: qPCR of naive CD8+ T cells stimulated with testosterone, type I IFN or both; type: cell-based, mouse
Procedure: See methods for details. […] Blue, Male; Pink, Female.
Mouse spleens and tumors were mechanically disrupted, with the latter additionally subjected to digestion with 1 mg/mL Collagenase D (Roche) for 30 min at 37° C. while shaken at 125 rpm. Excess volume of ice-cold PBS with 2% bovine serum albumin was used to inactivate the enzymatic activity. Red Blood Cell Lysis Buffer (BioLegend) was utilized on tissues before they were passed through 70 μm filters to prepare single cell suspensions. For cytokine production experiments, cells were re-stimulated by 50 ng/mL PMA (Sigma), 1 μg/mL Ionomycin (Sigma) and 1× Brefeldin A (BioLegend) in a 48-well plate for 2 hours at 37° C. For in vitro cultures, purified CD8^+ T cells were left untreated or stimulated with 50 ng/mL testosterone (Sigma) and/or 50 U/mL mouse IFN alpha A (PBL Assay Science). Cells were stained at 4° C. with eFluor506 fixable viability dye for 10 minutes (Invitrogen), followed by extracellular surface markers and FcR block concurrently for 30 minutes. […]
RNA was extracted from FACS/MACS-isolated CD8^+ T cells and reverse-transcribed using RNeasy Micro Kit (Qiagen) and SuperScript™ IV VILO™ Master Mix with ezDNase™ Enzyme (ThermoFisher Scientific), respectively. Quantitative PCR was performed with the following primers: […]

Structure (SMILES)	proliferation [1]	Tcf7 promoter activity (Red Firefly luciferase) (human Tcf7 promoter)	effector differentiation and function of CD8+ TILs (GZMB high frequency, PD-1 high TOX high frequency, IFNγ) [2]	MB49 tumor growth [3]	Ar expression (qPCR) (Tcf7; female CD8+ T cells, testosterone)	Tcf7 expression (qPCR) (Tcf7; male CD8+ T cells, acute testosterone exposure, 6 hours)
C[C@]12CCC(=O)C[C@@H]1CC[C@@H]1[C@@H]2CC[C@]2(C)[C@@H](O)CC[C@@H]12 [DHT, dihydrotestosterone]	decreased proliferation	stimulated Tcf7 promoter activity in an AR dependent manner				
CNC(=O)c1ccc(N2C(=S)N(c3ccc(C#N)c(C(F)(F)F)c3)C(=O)C2(C)C)cc1F [enzalutamide]			promoting effector differentiation and function	partial protection against tumor growth		
C[C@]12CC[C@H]3[C@@H](CCC4=CC(=O)CC[C@@]43C)[C@@H]1CC[C@@H]2O [testosterone]	decreased proliferation	stimulated Tcf7 promoter activity in an AR dependent manner			induction of Ar expression	significantly increased
